# Entries after “also recorded” stand apart in the source; their conditions may differ.
# How the values were obtained:
# RENCA cells [1] = test: Histological examination of agarose coated agarose beads containing RENCA cells one week after drug exposure; format: cell-based; set-up: key to Effect: −: no change; +: complete loss of cell viability; +/−: an intermediate effect; conditions: for Effect: histology one week following exposure; for Destruction of cells within the encapsulated tumor colonies: beads treated with the drug
# Description: Agarose coated, agarose beads containing RENCA cells were prepared in accordance with Smith, et al., Canc Res., 71(3): 716-724 (2011); and Smith et al., Canc. Res. 71(3): 725-735 (2011), the disclosures of which are incorporated by reference. The resulting beads were cultured in medium for 12 weeks.
# Samples of beads were then exposed to a single, known anti-cancer drug, at one of three varying concentrations. The exposure involved incubation of the beads in the presence of the drug for a period of time based upon the known, half life of the drug.
# Following incubation, the beads were washed, twice, and transferred to naïve culture media. Controls were also prepared, which included untreated beads, as well as beads exposed to whatever vehicle was used to solubilize the drug.
# Histological examination of the beads was undertaken one week following exposure to the drug. […]
# RENCA cells [2] = test: 18 week culture of drug treated RENCA beads, sectioned and stained to count cell nuclei, normalized to DMSO treated beads; format: cell-based; conditions: for beads that developed 1 or 2 large colonies: week 18
# Description: The Paclitaxel and Docetaxel treated beads were cultured, under standard conditions, as were control beads which had been exposed to DMSO, which was the vehicle for delivery of the two drugs. The culture period was 18 weeks.
# Approximately 10% of the beads developed 1 or 2 large colonies, at week 18.
# In order to quantify the cell loss, representative beads from the DMSO control, Paclitaxel and Docetaxel groups were sectioned and stained, using standard methods, in order to permit counting of cell nuclei. Results were normalized to the DMSO treated beads.
# In the case of treatment with Paclitaxel, there was an initial loss over weeks 1-3, of about 25% of cells per colony. The majority of colonies did contain viable cells. […] In the case of docetaxel treated beads, these lost viable cells very rapidly, such that only 1-2 viable cells were present in the colonies 6 weeks after treatment.
compound,measurement,setting,value
N.N.O=C([O-])C1(C(=O)[O-])CCC1.[Pt+2] [Carboplatin],Effect,"RENCA cells [1]; Treatment time 5 days, dose 25 μg/ml",+/−
same,Effect,"RENCA cells [1]; Treatment time 5 days, dose 250 μg/ml",+
same,Effect,"RENCA cells [1]; Treatment time 5 days, dose 2500 μg/ml",+
N.N.[Cl][Pt][Cl] [Cisplatin],Effect,"RENCA cells [1]; Treatment time 1 hr, dose 60 ng/ml",−
same,Effect,"RENCA cells [1]; Treatment time 1 hr, dose 600 ng/ml",−
same,Effect,"RENCA cells [1]; Treatment time 1 hr, dose 6000 ng/ml",−
CC(=O)O[C@@]12CO[C@@H]1C[C@H](O)[C@@]1(C)C(=O)[C@H](O)C3=C(C)[C@@H](OC(=O)[C@H](O)[C@@H](NC(=O)OC(C)(C)C)c4ccccc4)C[C@@](O)([C@@H](OC(=O)c4ccccc4)[C@H]21)C3(C)C [Docetaxel],viable cells per colony,"RENCA cells [2]; 5 μg/ml, 6 weeks post-treatment",1-2 cells per colony
same,beads that developed 1 or 2 large colonies,RENCA cells [2]; 5 μg/ml,Approximately 10%
same,beads that developed 1 or 2 large colonies,"RENCA cells [2]; 5 μg/ml, listed as docetaxel",about 10%
same,Effect,"RENCA cells [1]; Treatment time 1 day, dose 0.5 μg/ml",+/−
same,Effect,"RENCA cells [1]; Treatment time 1 day, dose 5 μg/ml",+/−
same,Effect,"RENCA cells [1]; Treatment time 1 day, dose 50 μg/ml",+/−
same,Destruction of cells within the encapsulated tumor colonies,RENCA cells [1],did not destroy all of the cells
COc1cccc2c1C(=O)c1c(O)c3c(c(O)c1C2=O)C[C@@](O)(C(=O)CO)C[C@@H]3O[C@H]1C[C@H](N)[C@H](O)[C@H](C)O1 [Doxorubicin],Effect,"RENCA cells [1]; Treatment time 2 days, dose 5 μg/ml",+
same,Effect,"RENCA cells [1]; Treatment time 2 days, dose 50 μg/ml",+
same,Effect,"RENCA cells [1]; Treatment time 2 days, dose 100 μg/ml",+
CN(Cc1cnc2nc(N)nc(N)c2n1)c1ccc(C(=O)N[C@@H](CCC(=O)O)C(=O)O)cc1 [Methotrexate],Effect,"RENCA cells [1]; Treatment time 1 day, dose 0.45 μg/ml",−
same,Effect,"RENCA cells [1]; Treatment time 1 day, dose 4.5 μg/ml",−
same,Effect,"RENCA cells [1]; Treatment time 1 day, dose 45 μg/ml",−
CC(=O)O[C@H]1C(=O)[C@@]2(C)[C@H]([C@H](OC(=O)c3ccccc3)[C@]3(O)C[C@H](OC(=O)[C@H](O)[C@@H](NC(=O)c4ccccc4)c4ccccc4)C(C)=C1C3(C)C)[C@]1(OC(C)=O)CO[C@@H]1C[C@@H]2O [Paclitaxel],cell number at week 18,"RENCA cells [2]; 3.5 μg/ml, 18 weeks culture",return to the pre-treatment number of cells; also recorded: equivalent to the control DMSO beads
same,cell number in beads over time after treatment,"RENCA cells [2]; 3.5 μg/ml, first 6 weeks post-treatment",loss of cells for 6 weeks
same,initial loss of cells per colony,"RENCA cells [2]; weeks 1-3 after treatment, normalized to DMSO treated beads",about 25%
same,Effect,"RENCA cells [1]; Treatment time 1 day, dose 0.35 μg/ml",−
same,Effect,"RENCA cells [1]; Treatment time 1 day, dose 3.5 μg/ml",+/−
same,Effect,"RENCA cells [1]; Treatment time 1 day, dose 35 μg/ml",+/−
same,Destruction of cells within the encapsulated tumor colonies,RENCA cells [1],did not destroy all of the cells
CCC1=C[C@@H]2CN(C1)Cc1c([nH]c3ccccc13)[C@@](C(=O)OC)(c1cc3c(cc1OC)N(C)[C@H]1[C@@](O)(C(=O)OC)[C@H](OC(C)=O)[C@]4(CC)C=CCN5CC[C@]31[C@@H]54)C2 [Vinorelbine],Effect,"RENCA cells [1]; Treatment time 2 days, dose 0.1 μg/ml",−
same,Effect,"RENCA cells [1]; Treatment time 2 days, dose 1 μg/ml",+/−
same,Effect,"RENCA cells [1]; Treatment time 2 days, dose 10 μg/ml",+/−
